{"source": "patent US9518046B2", "about": "(Calitor Sciences, LLC, priority 2015, dated 2016)", "data": [{"assay": "Pharmacokinetics after intravenous and oral administration in rats", "format": "in vivo", "conditions": "Rats; iv dosing; dose 1 mg/kg (0.5 for Ex. 1, 10, 11, 35; 0.48 for Ex. 24)", "method": "The LC/MS/MS system used in the analysis consists of an Agilent 1200 Series vacuum degasser, binary pump, well-plate autosampler, thermostatted column compartment, the Agilent G6430 Triple Quadrupole Mass Spectrometer with an electrosprayionization (ESI) source. Quantitative analysis was carried out using MRM mode. The parameters for MRM transitions are in the Table A.\nAn Agilent XDB-C18, 2.1×30 mm, 3.5 M column was used for the analysis. 5 L of the samples were injected. Analysis condition: The mobile phase was 0.1% formic acid in water (A) and 0.1% formic acid in methanol (B). The flow rate was 0.4 mL/min. And the gradient of Mobile phase was in the Table B.\nAlternatively, an Agilent 6330 series LC/MS/MS spectrometer equipped with G1312A binary pumps, a G1367A autosampler and a G1314C UV detector were used in the analysis. An ESI source was used on the LC/MS/MS spectrometer. The analysis was done in positive ion mode as appropriate and the MRM transition for each analyte was optimized using standard solution. A Capcell MP-C18 100×4.6 mm I.D., […] column (Phenomenex, Torrance, Calif., USA) was used during the analysis. The mobile phase was 5 mM ammonia acetate, 0.1% MeOH in water (A): 5 mM ammonia acetate, 0.1% MeOH in acetonitrile (B) (70:30, v/v). The flow rate was 0.6 mL/min. Column was maintained at ambient temperature. 20 μL of the samples were injected.\nThe compounds disclosed herein are assessed in pharmacokinetic studies in mice, rats, dogs or monkeys. The compounds are administered as a water solution, 2% HPMC+1% TWEEN®80 in water solution, 5% DMSO+5% solutol in saline, 4% MC suspension or capsule. For the intravenous administration, the animals are generally given at 1 or 2 mg/kg dose. For the oral (p.o.) dosing, mice and rats are generally given 5 or 10 mg/kg dose, and dogs and monkeys are generally given 10 mg/kg dose. The blood samples (0.3 mL) are drawn at 0.25, 0.5, 1.0, 2.0, 3.0, 4.0, 6.0, 8.0, 12 and 24 h time points or 0.083, 0.25, 0.5, 1.0, 2.0, 4.0, 6.0, 8.0 and 24 h time points and centrifuged at 3,000 or 4000 rpm for 2 to 10 min. The plasma solutions are collected, stored at −20° C. or −70° C. until analyzed by LC/MS/MS as described above.", "units": {"CL/F": "mL/min/kg"}, "values": [{"smiles": "CC[C@H](Nc1ncnc(N)c1-c1noc(C)n1)c1nc2cccc(C)c2c(=O)n1C1CC1", "CL/F": 40.3}, {"smiles": "CC[C@H](Nc1ncnc(N)c1-c1noc(C)n1)c1nc2ccccc2c(=O)n1-c1ccccc1F", "CL/F": 118}, {"smiles": "CC[C@H](Nc1ncnc(N)c1-c1noc(C)n1)c1nc2cccc(C)c2c(=O)n1-c1ccccc1C", "note": "(single isomer, unassigned) [Ex. 15]", "CL/F": 74.2}, {"smiles": "CC[C@H](Nc1ncnc(N)c1-c1nc(C)no1)c1nc2ccccc2c(=O)n1-c1ccccc1F", "note": "(single isomer, unassigned) [Ex. 22]", "CL/F": 159}, {"smiles": "CC[C@H](Nc1ncnc(N)c1-c1nnc(C)o1)c1nc2ccccc2c(=O)n1-c1ccccc1F", "note": "(single isomer, unassigned) [Ex. 24]", "CL/F": 70.5}, {"smiles": "CC[C@H](Nc1ncnc(N)c1-c1nc(C)no1)c1nc2cccc(C)c2c(=O)n1-c1ccccc1C", "note": "(single isomer, unassigned) [Ex. 27]", "CL/F": 61.7}, {"smiles": "CC[C@H](Nc1ncnc(N)c1-c1ncc(C)o1)c1nc2cccc(C)c2c(=O)n1-c1ccccc1C", "note": "(single isomer, unassigned) [Ex. 28]", "CL/F": 61.2}, {"smiles": "CC[C@H](Nc1ncnc(N)c1-c1nc(C)co1)c1nc2cccc(C)c2c(=O)n1-c1ccccc1C", "note": "(single isomer, unassigned) [Ex. 29]", "CL/F": 130}, {"smiles": "CC[C@H](Nc1ncnc(N)c1-c1ncn(C)n1)c1nc2cccc(C)c2c(=O)n1-c1ccccc1C", "note": "(single isomer, unassigned) [Ex. 30]", "CL/F": 70.5}, {"smiles": "CC[C@H](Nc1ncnc(N)c1-c1nnc(C)o1)c1nc2cccc(C)c2c(=O)n1-c1ccccc1C", "note": "(single isomer, unassigned) [Ex. 31]", "CL/F": 64.8}, {"smiles": "CC[C@H](Nc1ncnc(N)c1-c1ncn(C)n1)c1nc2cccc(Cl)c2c(=O)n1-c1ccccc1F", "note": "(single isomer, unassigned) [Ex. 45]", "CL/F": 61.8}, {"smiles": "CC[C@H](Nc1ncnc(N)c1-c1nnc(C)o1)c1nc2cccc(Cl)c2c(=O)n1-c1ccccc1", "note": "[Ex. 1, (S)-2-(1-((6-amino-5-(5-methyl-1,3,4-oxadiazol-2-yl)pyrimidin-4-yl)amino)-propyl)-5-chloro-3-phenylquinazolin-4(3H)-one]", "CL/F": 47.3}, {"smiles": "CC[C@H](Nc1ncnc(N)c1-c1nnc(C)o1)c1nc2cccc(Cl)c2c(=O)n1C1CC1", "note": "[Ex. 2, (S)-2-(1-((6-amino-5-(5-methyl-1,3,4-oxadiazol-2-yl)pyrimidin-4-yl)amino)-propyl)-5-chloro-3-cyclopropylquinazolin-4(3H)-one]", "CL/F": 41.2}, {"smiles": "CC[C@H](Nc1ncnc(N)c1-c1nc(C)no1)c1nc2cccc(Cl)c2c(=O)n1-c1ccccc1", "note": "[Ex. 3, (S)-2-(1-((6-amino-5-(3-methyl-1,2,4-oxadiazol-5-yl)pyrimidin-4-yl)amino)-propyl) 5-chloro-3-phenylquinazolin-4(3H)-one]", "CL/F": 70.8}, {"smiles": "CC[C@H](Nc1ncnc(N)c1C1=N[C@@H](C)CO1)c1nc2cccc(Cl)c2c(=O)n1C1CC1", "note": "[Ex. 5, 2-((S)-1-((6-amino-5-((S)-4-methyl-4,5-dihydrooxazol-2-yl)pyrimidin-4-yl)amino)propyl)-5-chloro-3-cyclopropylquinazolin-4(3H)-one]", "CL/F": 59.5}, {"smiles": "CC[C@H](Nc1ncnc(N)c1C1=N[C@@H](C)CO1)c1nc2cccc(Cl)c2c(=O)n1-c1ccccc1", "note": "[Ex. 6]", "CL/F": 110}, {"smiles": "CC[C@H](Nc1ncnc(N)c1-c1ncc(C)o1)c1nc2cccc(Cl)c2c(=O)n1C1CC1", "note": "[Ex. 7, (S)-2-(1-((6-amino-5-(5-methyloxazol-2-yl)pyrimidin-4-yl)amino)propyl)-5-chloro-3-cyclopropylquinazolin-4(3H)-one]", "CL/F": 54.8}, {"smiles": "CC[C@H](Nc1ncnc(N)c1-c1ncnn1C)c1nc2cccc(Cl)c2c(=O)n1C1CC1", "note": "[Ex. 9, 2-((1S)-1-((6-amino-5-(1-methyl-1H-1,2,4-triazol-5-yl)pyrimidin-4-yl)amino)-propyl)-5-chloro-3-cyclopropylquinazolin-4(3H)-one]", "CL/F": 27.3}, {"smiles": "CC[C@H](Nc1ncnc(N)c1-c1ncnn1C)c1nc2cccc(Cl)c2c(=O)n1-c1ccccc1", "note": "[Ex. 10, 2-((1S)-1-((6-amino-5-(1-methyl-H-1,2,4-triazol-5-yl)pyrimidin-4-yl)amino)propyl)-5-chloro-3-phenylquinazolin-4(3H)-one]", "CL/F": 3.5}, {"smiles": "CC[C@H](Nc1ncnc(N)c1-c1ccccn1)c1nc2cccc(Cl)c2c(=O)n1C1CC1", "note": "[Ex. 11, (S)-2-(1-((6-amino-5-(pyridin-2-yl)pyrimidin-4-yl)amino)propyl)-5-chloro-3-cyclopropylquinazolin-4(3H)-one]", "CL/F": 4.83}, {"smiles": "CC[C@H](Nc1ncnc(N)c1-c1noc(C)n1)c1nc2cccc(Cl)c2c(=O)n1C1CC1", "note": "[Ex. 12, (S)-2-(1-((6-amino-5-(5-methyl-1,2,4-oxadiazol-3-yl)pyrimidin-4-yl)amino)-propyl)-5-chloro-3-cyclopropylquinazolin-4(3H)-one]", "CL/F": 31.8}, {"smiles": "CC[C@H](Nc1ncnc(N)c1-c1noc(C)n1)c1nc2cccc(Cl)c2c(=O)n1-c1ccccc1", "note": "[Ex. 13, (S)-2-(1-((6-amino-5-(5-methyl-1,2,4-oxadiazol-3-yl)pyrimidin-4-yl)amino)-propyl)-5-chloro-3-phenylquinazolin-4(3H)-one]", "CL/F": 72.5}, {"smiles": "CC[C@H](Nc1ncnc(N)c1-c1ccon1)c1nc2cccc(Cl)c2c(=O)n1C1CC1", "note": "[Ex. 14, (S)-2-(1-((6-amino-5-(isoxazol-3-yl)pyrimidin-4-yl)amino)propyl)-5-chloro-3-cyclopropylquinazolin-4(3H)-one]", "CL/F": 46.7}, {"smiles": "CC[C@H](Nc1ncnc(N)c1-c1noc(C)n1)c1nc2cccc(F)c2c(=O)n1C1CC1", "note": "[Ex. 16, (S)-2-(1-((6-amino-5-(5-methyl-1,2,4-oxadiazol-3-yl)pyrimidin-4-yl)amino)-propyl)-3-cyclopropyl-5-fluoroquinazolin-4(3H)-one]", "CL/F": 68.7}, {"smiles": "CC[C@H](Nc1ncnc(N)c1-c1ncn(C)n1)c1nc2cccc(C)c2c(=O)n1C1CC1", "note": "[Ex. 18, (S)-2-(1-((6-amino-5-(1-methyl-1H-1,2,4-triazol-3-yl)pyrimidin-4-yl)amino)propyl)-3-cyclopropyl-5-methylquinazolin-4(3H)-one]", "CL/F": 54.2}, {"smiles": "CC[C@@H](Nc1ncnc(N)c1-c1nc(C)no1)c1nc2cccc(Cl)c2c(=O)n1C1CC1", "note": "[Ex. 19, (R)-2-(1-((6-amino-5-(3-methyl-1,2,4-oxadiazol-5-yl)pyrimidin-4-yl)amino)propyl)-5-chloro-3-cyclopropylquinazolin-4(3H)-one]", "CL/F": 127}, {"smiles": "CC[C@H](Nc1ncnc(N)c1-c1nnc(C)o1)c1nc2cccc(C)c2c(=O)n1C1CC1", "note": "[Ex. 20]", "CL/F": 77.3}, {"smiles": "CC[C@H](Nc1ncnc(N)c1-c1nc(C)no1)c1nc2cccc(C)c2c(=O)n1C1CC1", "note": "[Ex. 21, (S)-2-(1-((6-amino-5-(3-methyl-1,2,4-oxadiazol-5-yl)pyrimidin-4-yl)amino)-propyl)-3-cyclopropyl-5-methylquinazolin-4(3H)-one]", "CL/F": 55.8}, {"smiles": "CC[C@H](Nc1ncnc(N)c1-c1nc(C)no1)c1nc2cccc(F)c2c(=O)n1C1CC1", "note": "[Ex. 23, (S)-2-(1-((6-amino-5-(3-methyl-1,2,4-oxadiazol-5-yl)pyrimidin-4-yl)amino)-propyl)-3-cyclopropyl-5-fluoroquinazolin-4(3H)-one]", "CL/F": 71.3}, {"smiles": "CC[C@H](Nc1ncnc(N)c1-c1nnc(C)o1)c1nc2cccc(F)c2c(=O)n1C1CC1", "note": "[Ex. 25, (S)-2-(1-((6-amino-S-(5-methyl-1,3,4-oxadiazol-2-yl)pyrimidin-4-yl)amino)-propyl)-3-cyclopropyl-5-fluoroquinazolin-4(3H)-one]", "CL/F": 75.7}, {"smiles": "CC[C@H](Nc1ncnc(N)c1-c1ncn(C)n1)c1nc2cccc(F)c2c(=O)n1C1CC1", "note": "[Ex. 26, (S)-2-(1-((6-amino-5-(1-methyl-1H-1,2,4-triazol-3-yl)pyrimidin-4-yl)amino)propyl)-3-cyclopropyl-5-fluoroquinazolin-4(3H)-one]", "CL/F": 37}, {"smiles": "CC[C@H](Nc1ncnc(N)c1-c1ncn(C)n1)c1nc2cccc(Cl)c2c(=O)n1-c1ccccc1", "note": "[Ex. 32, (S)-2-(1-((6-amino-5-(1-methyl-H-1,2,4-triazol-3-yl)pyrimidin-4-yl)amino)-propyl)-5-chloro-3-phenylquinazolin-4(3H)-one]", "CL/F": 43.3}, {"smiles": "Cc1nc(-c2c(N)ncnc2N[C@@H](C)c2nc3cccc(Cl)c3c(=O)n2C2CC2)no1", "note": "[Ex. 33, (S)-2-(1-((6-amino-5-(5-methyl-1,2,4-oxadiazol-3-yl)pyrimidin-4-yl)amino)-ethyl)-5-chloro-3-cyclopropylquinazolin-4(3H)-one]", "CL/F": 65.5}]}]}
